{
  "source": "PubChem BioAssay AID192",
  "about": "(DTP/NCI, 2004)",
  "system": "BDF1 mice, B16 melanoma ip, median survival T/C",
  "assay": "NCI In Vivo Anticancer Drug Screen. Data for tumor model B16 Melanoma (intraperitoneal) in B6D2F1 (BDF1) mice",
  "details": "endpoint: median survival time, higher = longer survival",
  "summary_of_the_method": "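Tumor-bearing mice received test compound or vehicle. Survival or tumor size was then measured in both groups. The treated-group figure was divided by the control-group figure.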",
  "key": {"[1]": {"details": "dose: 100.0 mg/kg/injection, schedule: Q01DX009 (ip), vehicle: Klucel (hydroxypropylcellulose) (HPC)"}, "[2]": {"details": "dose: 200.0 mg/kg/injection, schedule: Q01DX009 (ip), vehicle: Klucel (hydroxypropylcellulose) (HPC)"}, "[3]": {"details": "dose: 25.0 mg/kg/injection, schedule: Q01DX009 (ip), vehicle: saline"}, "[4]": {"details": "dose: 100.0 mg/kg/injection, schedule: Q01DX009 (ip), vehicle: saline"}, "[5]": {"details": "dose: 100.0 mg/kg/injection, schedule: Q01DX009 (ip), vehicle: saline with Tween-80"}, "[6]": {"details": "dose: 200.0 mg/kg/injection, schedule: Q01DX009 (ip), vehicle: saline"}, "[7]": {"details": "dose: 400.0 mg/kg/injection, schedule: Q01DX009 (ip), vehicle: saline"}},
  "note": "Where “and” joins values, the source holds several entries; their conditions need not be identical. Equal entries are not always repeated. Toxic doses and inconclusive results are not listed. Numbered stars: 1 amine (or outer) side, 2 acyl side, 3 side chain; on linkers, the order of the positions; unused ones are H or OH. Bridge positions count the residues as written; N and C are the ends. Square brackets hold non-standard residues; d marks the D form. Peptide text beside a SMILES is read from it. I, II: the chains in the order shown. Actinocin(9to1) = Cc1c2oc3c(C)ccc(C(=O)[*:1])c3nc-2c(C(=O)[*:2])c(N)c1=O; NMeV = CN[CH](C(=O)O)C(C)C; Pip = O=C(O)[CH]1CCCCN1; Sar = CNCC(=O)O",
  "data": [
    {"smiles": "Cc1c2oc3c(C)ccc(C(=O)NC4C(=O)NC(C(C)C)C(=O)N5CCCCC5C(=O)N(C)CC(=O)N(C)C(C(C)C)C(=O)OC4C)c3nc-2c(C(=O)NC2C(=O)NC(C(C)C)C(=O)N3CCCCC3C(=O)N(C)CC(=O)N(C)C(C(C)C)C(=O)OC2C)c(N)c1=O", "note": "(centres undefined) (I: TV[Pip][Sar][NMeV] / II: TV[Pip][Sar][NMeV]; ester I:1-I:C, II:1-II:C; linker I:N-II:N via Actinocin(9to1); configuration not given here)", "values": [
      {"measurement": "T/C", "setting": "dose: 0.25 mg/kg/injection, schedule: Q01DX009 (ip), vehicle: saline + alcohol", "value": "120 % of control"},
      {"measurement": "T/C", "setting": "dose: 0.5 mg/kg/injection, schedule: Q01DX009 (ip), vehicle: saline + alcohol", "value": "123 % of control"},
      {"measurement": "T/C", "setting": "dose: 0.75 mg/kg/injection, schedule: Q04DX003 (ip), vehicle: saline + alcohol", "value": "99 % of control and 116 % of control"},
      {"measurement": "T/C", "setting": "dose: 1.5 mg/kg/injection, schedule: Q04DX003 (ip), vehicle: saline + alcohol", "value": "111 % of control and 116 % of control"},
      {"measurement": "T/C", "setting": "dose: 2.0 mg/kg/injection, schedule: Q01DX009 (ip), vehicle: saline + alcohol", "value": "157 % of control"},
      {"measurement": "T/C", "setting": "dose: 6.0 mg/kg/injection, schedule: Q04DX003 (ip), vehicle: saline + alcohol", "value": "155 % of control"}
    ]},
    {"smiles": "CCOc1ccccc1NC(=O)c1ccccc1Cl", "values": [
      {"measurement": "T/C", "setting": "[1]", "value": "106 % of control"},
      {"measurement": "T/C", "setting": "[2]", "value": "106 % of control"},
      {"measurement": "T/C", "setting": "dose: 400.0 mg/kg/injection, schedule: Q01DX009 (ip), vehicle: Klucel (hydroxypropylcellulose) (HPC)", "value": "93 % of control"}
    ]},
    {"smiles": "Cc1cc(O)ccc1[N+](=O)[O-]", "values": [
      {"measurement": "T/C", "setting": "[3]", "value": "119 % of control"},
      {"measurement": "T/C", "setting": "dose: 50.0 mg/kg/injection, schedule: Q01DX009 (ip), vehicle: saline", "value": "123 % of control"},
      {"measurement": "T/C", "setting": "[4]", "value": "104 % of control"}
    ]},
    {"smiles": "O=c1cc(O)c1=O", "values": [
      {"measurement": "T/C", "setting": "dose: 0.78 mg/kg/injection, schedule: Q01DX009 (ip), vehicle: saline with Tween-80", "value": "106 % of control"},
      {"measurement": "T/C", "setting": "dose: 1.56 mg/kg/injection, schedule: Q01DX009 (ip), vehicle: saline with Tween-80", "value": "104 % of control"},
      {"measurement": "T/C", "setting": "dose: 3.13 mg/kg/injection, schedule: Q01DX009 (ip), vehicle: saline with Tween-80", "value": "110 % of control"},
      {"measurement": "T/C", "setting": "dose: 6.25 mg/kg/injection, schedule: Q01DX009 (ip), vehicle: saline with Tween-80", "value": "109 % of control"},
      {"measurement": "T/C", "setting": "dose: 12.5 mg/kg/injection, schedule: Q01DX009 (ip), vehicle: saline with Tween-80", "value": "93 % of control"}
    ]},
    {"smiles": "O=C(Nc1cccc(C(F)(F)F)c1)c1ccc(C(=O)Nc2cccc(C(F)(F)F)c2)cc1", "values": [
      {"measurement": "T/C", "setting": "dose: 25.0 mg/kg/injection, schedule: Q01DX009 (ip), vehicle: saline with Tween-80", "value": "205 % of control"},
      {"measurement": "T/C", "setting": "dose: 50.0 mg/kg/injection, schedule: Q01DX009 (ip), vehicle: saline with Tween-80", "value": "184 % of control"},
      {"measurement": "T/C", "setting": "[5]", "value": "90 % of control"}
    ]},
    {"smiles": "O=C(N/N=C/c1cccc(S(=O)(=O)O)c1)c1ccncc1", "values": [
      {"measurement": "T/C", "setting": "[5]", "value": "99 % of control"},
      {"measurement": "T/C", "setting": "dose: 200.0 mg/kg/injection, schedule: Q01DX009 (ip), vehicle: saline with Tween-80", "value": "100 % of control"},
      {"measurement": "T/C", "setting": "dose: 400.0 mg/kg/injection, schedule: Q01DX009 (ip), vehicle: saline with Tween-80", "value": "103 % of control"}
    ]},
    {"smiles": "C#CCOCC1CN(C)C(=O)O1", "note": "(centres undefined)", "values": [
      {"measurement": "T/C", "setting": "[3]", "value": "109 % of control"},
      {"measurement": "T/C", "setting": "[4]", "value": "102 % of control"},
      {"measurement": "T/C", "setting": "[6]", "value": "109 % of control"},
      {"measurement": "T/C", "setting": "[7]", "value": "107 % of control"}
    ]},
    {"smiles": "CCOc1ccc(/C=N\\N=C\\c2ccc(OCC)cc2)cc1", "values": [
      {"measurement": "T/C", "setting": "[1]", "value": "95 % of control"},
      {"measurement": "T/C", "setting": "[2]", "value": "90 % of control and 110 % of control"}
    ]},
    {"smiles": "Clc1ccc2c(c1)C(N1CCOCC1)c1cc(Cl)cc(Cl)c1-2", "note": "(centres undefined)", "values": [
      {"measurement": "T/C", "setting": "[4]", "value": "102 % of control"},
      {"measurement": "T/C", "setting": "[6]", "value": "95 % of control"},
      {"measurement": "T/C", "setting": "[7]", "value": "90 % of control"},
      {"measurement": "T/C", "setting": "dose: 800.0 mg/kg/injection, schedule: Q01DX009 (ip), vehicle: saline", "value": "90 % of control"}
    ]},
    {"smiles": "[N-]=[N+]=C1N=CN=C1c1ncn[nH]1", "values": [
      {"measurement": "T/C", "setting": "dose: 3.12 mg/kg/injection, schedule: Q01DX009 (ip), vehicle: carboxymethylcellulose (CMC)", "value": "107 % of control"},
      {"measurement": "T/C", "setting": "dose: 6.25 mg/kg/injection, schedule: Q01DX009 (ip), vehicle: carboxymethylcellulose (CMC)", "value": "119 % of control"}
    ]},
    {"smiles": "C=C1CCN(c2ccc(Br)cc2)C1=O", "values": [
      {"measurement": "T/C", "setting": "dose: 4.0 mg/kg/injection, schedule: Q01DX009 (ip), vehicle: saline + alcohol", "value": "95 % of control"},
      {"measurement": "T/C", "setting": "dose: 8.0 mg/kg/injection, schedule: Q01DX009 (ip), vehicle: saline + alcohol", "value": "101 % of control"},
      {"measurement": "T/C", "setting": "dose: 16.0 mg/kg/injection, schedule: Q01DX009 (ip), vehicle: saline + alcohol", "value": "109 % of control"},
      {"measurement": "T/C", "setting": "dose: 32.0 mg/kg/injection, schedule: Q01DX009 (ip), vehicle: saline + alcohol", "value": "95 % of control"},
      {"measurement": "T/C", "setting": "dose: 64.0 mg/kg/injection, schedule: Q01DX009 (ip), vehicle: saline + alcohol", "value": "101 % of control"}
    ]},
    {"smiles": "CC(=O)[O][Hg][c]1s[c]([Hg][O]C(C)=O)[c]([Hg][O]C(C)=O)[c]1[Hg][O]C(C)=O", "values": [
      {"measurement": "T/C", "setting": "dose: 0.75 mg/kg/injection, schedule: Q01DX009 (ip), vehicle: saline with Tween-80", "value": "102 % of control"},
      {"measurement": "T/C", "setting": "dose: 1.5 mg/kg/injection, schedule: Q01DX009 (ip), vehicle: saline with Tween-80", "value": "92 % of control"},
      {"measurement": "T/C", "setting": "dose: 3.0 mg/kg/injection, schedule: Q01DX009 (ip), vehicle: saline with Tween-80", "value": "87 % of control"},
      {"measurement": "T/C", "setting": "dose: 6.0 mg/kg/injection, schedule: Q01DX009 (ip), vehicle: saline with Tween-80", "value": "97 % of control"}
    ]}
  ]
}
